Data as given in article PMC4949444 (Scientific Reports, 2016).

Key:
[1] = target: T1, CB2 receptor (Homo sapiens, UniProt P34972); experiment: CB2 receptor binding, [3H]CP55940 competition; conditions: data not shown; read-out: predicted Ki, CB2 receptor
T1 construct: purchased Perkin-Elmer Life and Analytical Sciences, Boston, MA; host or cells: HEK293 EBNA cells stably expressing the receptor
Procedure: CB1 and CB2 receptor binding affinities were determined by competition studies using [^3H]CP55940 as radioligand and commercial membrane preparations of HEK293 EBNA cells stably expressing the respective receptor type (Perkin-Elmer Life and Analytical Sciences, Boston, MA), following a procedure previously described.

[2] = test system: 3NP-lesioned C57BL/6 mice; experiment: 3-nitropropionic acid (3NP) model of Huntington's disease; assay type: in vivo; conditions: for COX-2 (2expΔΔct) / IL-6 (2expΔΔct) / TNF-α (2expΔΔct): striatum mRNA; for % GSH / % SOD activity / %Catalase activity: striatum
Procedure: Figure 7 VCE-003.2 is neuroprotective in 3NP-intoxicated mice. (a) Behavioural score was determined 12 hours after 3NP intoxication. Mice were treated with VCE-003.2 (20 mg/Kg) alone or combined with T0070907 (5 mg/kg) as indicated. Animals were also treated separately with either VCE-003.2 or T0070907 alone. Hind limb clasping, general locomotor activity, hind limb dystonia and kyphosis were rated from 0 to 2 based on severity (score 0 indicates normal function and 2 indicates the most severe affected function). Values are expressed as means ± SEM (n = 6). (b) Representative images of Nissl staining performed on coronal striatal brain sections from the same mice groups. Photomicrographs of NeuN (Bar size, 50 μm) Iba-1 and glial fibrillary acidic protein (GFAP) immunostained sections through the different group of mice are also shown. (c) Quantification of the different markers was performed with Image J software. Total average number of neurons (NeuN^+), microglia (Iba1^+) and astrocytes (GFAP^+) is shown. Values are expressed as means ± SEM (n = 6). *p < 0.05, **p < 0.01, ***p < 0.001 vs. Vehicle; ^#p < 0.05, ^##p < 0.01, ^###p < 0.001 vs. 3NP; †p < 0.05, ^††p < 0.01, ^†††p < 0.001 vs. the 3NP + VCE-003.2 group.
Mice were housed under standard conditions (12-h light/dark cycle) in groups with access to food and water ad libitum. All experiments were performed in accordance with European Union guideline and approved by the Animal Research Ethic Committee of Córdoba University (2014PI/017) (3NP model) and by the Animal Research Ethic Committee of Complutense University (CEA-UCM 73/2012) (QA model). Procedures were designed to minimize the number of animals used and their suffering. Excitotoxicity was induced by intrastriatal quinolinic acid (QA) administration (100 nmol in 1 μL PBS solution, unilaterally) as previously described[41] at the following coordinates: +0.6 posterior to bregma, +1.85 medio-lateral and -2.7 dorso-ventral to dura, in 12-week-old CD1 male mice (Harlan Ibérica, Barcelona, Spain). Pharmacological manipulation with VCE-003.2 (10 mg/kg body weight) was performed i.p. daily in 2% Tween 20 and 3% DMSO in saline buffer until sacrifice. Control animals received the corresponding vehicle injections. Motor function was assessed by RotaRod analysis conducted with acceleration from 4 to 40 rpm over a period of 570 s in an LE8200 device (Harvard Apparatus, Barcelona, Spain). […] 3NP-treated animals and their respective non-lesioned controls (injected with PBS) were used for pharmacological studies with VCE-003.2. Treatments consisted of 4 i.p. injections every 24 h with 20 mg/kg VCE-003.2 or vehicle (4% DMSO plus 6,2% Tween 20 in saline buffer), with the first and the last injections 30 min before the first and the last injections of 3NP, respectively. In some experiments, mice received a combination of VCE-003.2 and the PPARγ antagonist T0070907 (5 mg/kg) injected 15 minutes before VCE-003.2. In 3NP-lesioned mice, motor activity, hindlimb clasping, dystonia, and truncal dystonia were evaluated following previously described procedures. All behavioural tests were conducted prior to drug injections to avoid acute effects of the compounds under investigation and all animals were euthanized 12 h after the last injection of 3NP and their brains removed. The right hemispheres were used to dissect the striatum which was frozen in RNAlater (Sigma-Aldrich) and stored at −80 °C for biochemical analyses. The left hemispheres were fixed in fresh 4% paraformaldehyde (in 0.1 M PBS) for 48 h at 4 °C and embedded in paraffin wax for staining and immunohistochemical analysis. In all experiments, at least 6 animals were used per experimental group.
Free floating coronal brain slices ([…]) were processed as previously described. […]

[3] = test system: ERK, Akt and mTORC1 signaling pathways; experiment: ERK, Akt and mTORC1 signalling in HiB5 cells (western blot); assay type: cell-based
Procedure: Figure 3 Prosurvival effect of VCE-003.2 in hippocampal neural progenitor HiB5 cells. (a,b) HiB5 cells in proliferative and differentiation conditions respectively were incubated with increasing concentrations of VCE-003.2 and cell viability was assessed using the MTT test after 48 h. (c) Cell viability and ERK1/2 phosphorylation status (activation) was determined in VCE-003.2-treated cells in the absence or presence of GW9662 (5 μM). (d) VCE-003.2 time-dependent regulation of the ERK, Akt and mTORC1 signaling pathways were determined by incubation with anti-phospho-ERK, phospho-Akt and phospho-S6 antibodies. Loading control was performed with α-tubulin antibody. Representative western blots and densitometry quantification of three independent experiments are shown. Values are expressed as means ± S.D. *p < 0.05; **p < 0.01 vs. Vehicle; ^#p < 0.05 vs. VCE-003.2.
Cleared cell extracts were subjected to SDS-PAGE, transferred to polyvinylidene difluoride membranes, and incubated with the correspondent primary antibodies against phospho-ERK1/2 (Thr202/Tyr204; Cell Signaling Technology, Danvers, MA, USA), phospho-S6 ribosomal protein (Ser235/236) (Cell Signaling Technology), phospho-Akt (Ser473) (Cell Signaling Technology) and α-tubulin (Sigma-Aldrich) overnight at 4 °C. After washing membranes, horseradish peroxidase-conjugated secondary antibody was added and detected by chemiluminescence system. Loading controls were performed with an anti-α-tubulin antibody. Densitometric quantification of the luminograms was performed using a GS-700 Imaging densitometer (Bio-Rad, Hercules, CA) and Image J software.

[4] = test system: PPARγ; assay type: cell-based; conditions: HEK293, GAL4-PPARγ + GAL4-luc, 6 hours
Procedure: The indicated concentrations were tested and results were plotted to obtain the polynomial trend on a logarithmic range. IC50 values are indicated within the graph. […] HEK293 cells were co-transfected with GAL4-PPARγ and GAL4-luc and incubated with the indicated compound concentrations for 6 hours prior to luciferase activity determination. Results are expressed as the fold induction ± S.D. relative to untreated control. […] All experiments are shown as mean ± S.D. from at least three independent experiments. Statistics: *^,#,†p < 0.05, **^,##,††p < 0.01 and ***^,###p < 0.001. […] To study PPARγ transcriptional activity HEK293 cells were seeded in 24-well plates and transiently co-transfected with the expression vector GAL4-PPARγ and the luciferase reporter vector GAL4-luc using Roti-Fect (Carl Roth, Karlsruhe, Germany) following the manufacturer’s instructions. To correct for transfection efficacy, 100 ng Renilla luciferase (pRL-CMV) was also cotransfected. After stimulation, the luciferase activities were quantified using Dual-Luciferase Assay (Promega, Madison, WI, USA).

[5] = 3NP-lesioned mice, + T0070907 5 mg/kg
[6] = 3NP-treated mice, VCE-003.2 20 mg/kg
[7] = 3NP-treated mice, VCE-003.2 20 mg/kg + T0070907 5 mg/kg
[8] = substance alone, mean ± SEM n=6
[9] = 3NP-treated mice, VCE-003.2 20 mg/kg, % of vehicle control
[10] = substance alone, % of vehicle-treated control

T1 sequence (P34972 whole entry): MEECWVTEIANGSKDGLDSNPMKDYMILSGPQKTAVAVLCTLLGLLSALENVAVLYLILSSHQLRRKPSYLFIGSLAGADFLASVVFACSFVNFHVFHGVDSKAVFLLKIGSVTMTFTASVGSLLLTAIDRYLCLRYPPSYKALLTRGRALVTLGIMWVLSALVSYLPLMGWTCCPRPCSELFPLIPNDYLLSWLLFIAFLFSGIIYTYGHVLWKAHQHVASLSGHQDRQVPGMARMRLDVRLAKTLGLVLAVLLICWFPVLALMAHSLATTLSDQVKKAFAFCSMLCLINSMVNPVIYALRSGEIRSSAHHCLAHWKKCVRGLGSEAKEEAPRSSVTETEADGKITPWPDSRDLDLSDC

SMILES: CCCCCC1=C(NCC)C(=O)C(C/C=C(\C)CCC=C(C)C)=C(O)C1=O [VCE-003.2]
- Ki [1]: > 40 µM
- loss of Nissl and NeuN+ cells in striatum ([2]; 3NP-lesioned mice, 20 mg/kg): rescued the loss of Nissl and NeuN^+-cells
- microgliosis and astrogliosis (Iba1, GFAP) ([2]; 3NP-lesioned mice, 20 mg/kg): reduced 3NP-induced microgliosis and astrogliosis
- motor deficits: hindlimb clasping, dystonia, kyphosis ([2]; 3NP-lesioned mice, 20 mg/kg i.p.): improved the motor deficits of 3NP-lesioned mice by reducing hindlimb clasping, dystonia and kyphosis
- effect on motor deficits with PPARγ antagonist co-administered [2, 5]: abrogated
- neuroprotective activity (Nissl, NeuN) with T0070907 co-administered [2, 5]: prevented the activity of VCE-003.2
- behavioural score, substance alone ([2]; mice given the substance alone): Neither VCE-003.2 nor T0070907 alone influenced the behavior of the animals
- COX-2 (2expΔΔct) [2, 6]: 2.7 ± 0.07^### 2expΔΔct
- IL-6 (2expΔΔct) [2, 6]: 1.79 ± 0.2^### 2expΔΔct
- TNF-α (2expΔΔct) [2, 6]: 1.56 ± 0.576^## 2expΔΔct
- COX-2 (2expΔΔct) [2, 7]: 8.91 ± 1^† 2expΔΔct
- IL-6 (2expΔΔct) [2, 7]: 8.18 ± 2.9 2expΔΔct
- TNF-α (2expΔΔct) [2, 7]: 3.83 ± 1.17 2expΔΔct
- COX-2 (2expΔΔct) [2, 8]: 1.31 ± 0.75 2expΔΔct
- IL-6 (2expΔΔct) [2, 8]: 1.14 ± 0.65 2expΔΔct
- TNF-α (2expΔΔct) [2, 8]: 1.15 ± 058 2expΔΔct
- % GSH [2, 7]: 121.48 ± 15.29%
- % SOD activity [2, 7]: 121.46 ± 37.04%
- %Catalase activity [2, 7]: 89.08 ± 5.7%
- % GSH [2, 9]: 111.7 ± 12.6%
- % SOD activity [2, 9]: 221.18 ± 26.91^# %
- %Catalase activity [2, 9]: 88.82 ± 6.75^# %
- % GSH [2, 10]: 101.81 ± 14.59%
- % SOD activity [2, 10]: 115.62 ± 27.34%
- %Catalase activity [2, 10]: 99.05 ± 6.1%
- ERK phosphorylation [3]: induction of extracellular signal-regulated kinase (ERK) phosphorylation
- ERK phosphorylation in presence of GW9662 ([3]; + GW9662 5 μM): abolished in the presence of GW9662
- activation of Akt, time course ([3]; phospho-Akt): activated at a higher extent and shortly after VCE-003.2 incubation and lasted until 60 min after incubation
- activation of ERK and mTORC1 signaling, time course ([3]; phospho-ERK and phospho-S6): transient activation of ERK and mTORC1 signaling pathways between 15 and 30 min after stimulation
- PPARγ transcriptional activity (transactivation) [4]: induced PPARγ transactivation in a concentration-dependent manner
